Test results published in PMC3748743 (Analytical chemistry, 2013).

Biological target: BoNT/A (Clostridium botulinum, UniProt P0DPI1)
Format: biochemical

BoNT/A, sequence (P0DPI1 whole entry, looked up): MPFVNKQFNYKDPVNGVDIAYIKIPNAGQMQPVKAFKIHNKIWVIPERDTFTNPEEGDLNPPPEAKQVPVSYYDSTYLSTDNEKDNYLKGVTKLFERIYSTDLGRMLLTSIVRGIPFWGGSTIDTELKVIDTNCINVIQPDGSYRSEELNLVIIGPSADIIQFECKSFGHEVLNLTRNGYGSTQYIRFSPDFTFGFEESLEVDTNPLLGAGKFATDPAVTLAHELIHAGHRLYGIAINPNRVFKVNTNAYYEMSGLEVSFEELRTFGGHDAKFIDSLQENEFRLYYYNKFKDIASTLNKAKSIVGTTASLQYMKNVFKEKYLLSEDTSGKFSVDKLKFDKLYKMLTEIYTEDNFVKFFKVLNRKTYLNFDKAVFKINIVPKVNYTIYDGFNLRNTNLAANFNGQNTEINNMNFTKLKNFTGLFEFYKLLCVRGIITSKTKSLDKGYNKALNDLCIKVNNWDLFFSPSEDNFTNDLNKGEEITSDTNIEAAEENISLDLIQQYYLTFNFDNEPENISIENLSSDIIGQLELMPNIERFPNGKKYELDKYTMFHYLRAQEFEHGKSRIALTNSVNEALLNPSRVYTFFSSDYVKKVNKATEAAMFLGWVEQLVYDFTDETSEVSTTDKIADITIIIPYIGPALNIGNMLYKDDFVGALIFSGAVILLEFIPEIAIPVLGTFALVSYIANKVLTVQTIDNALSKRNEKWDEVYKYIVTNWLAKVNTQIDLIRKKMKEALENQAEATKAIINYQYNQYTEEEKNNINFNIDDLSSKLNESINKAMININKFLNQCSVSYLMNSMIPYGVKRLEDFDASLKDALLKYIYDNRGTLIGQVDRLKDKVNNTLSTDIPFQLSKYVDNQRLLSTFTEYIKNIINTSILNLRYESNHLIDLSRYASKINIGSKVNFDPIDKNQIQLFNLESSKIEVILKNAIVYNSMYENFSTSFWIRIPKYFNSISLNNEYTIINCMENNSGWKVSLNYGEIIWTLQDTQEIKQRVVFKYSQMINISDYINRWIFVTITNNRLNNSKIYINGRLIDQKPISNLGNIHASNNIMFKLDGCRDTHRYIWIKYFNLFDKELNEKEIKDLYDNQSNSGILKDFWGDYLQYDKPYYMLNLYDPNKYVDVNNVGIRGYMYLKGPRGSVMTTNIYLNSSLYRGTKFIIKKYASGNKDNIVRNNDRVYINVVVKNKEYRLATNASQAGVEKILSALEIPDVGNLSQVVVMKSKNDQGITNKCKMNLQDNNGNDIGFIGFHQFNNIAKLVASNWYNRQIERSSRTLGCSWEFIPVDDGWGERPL

For TPEN, the “Effect on fluorescent signal of BoNT/A ALISSA” value was “significant suppression of fluorescent signal”.
